According to article PMC7377239, “Cardiovascular Effects of Polychlorinated Biphenyls and Their Major Metabolites” (Environmental Health Perspectives, 2020):
Where two headings read alike, the source gives them in different places.

Assays:
[1] = test system: HUVECs; test: Tube formation (tubulogenesis) assay in HUVECs, 18 h; type: cell-based, human; details: Homo sapiens, HUVEC, 18 h; for activity at 0.01 µM: concentration 0.01 µM; for activity at 0.1 µM: concentration 0.10 µM; for activity at 1 µM: concentration 1.00 µM; for activity at 10 µM: concentration 10.00 µM; for activity at 100 µM: concentration 100.00 µM
Outline: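 HUVECs (passage 1–5) seeded on reduced-growth-factor basement membrane and exposed to compounds overnight at 37°C, 5% CO2, in 2× maintenance medium with 12.5 ng/mL VEGF; 0.5% DMSO vehicle. Calcein AM-stained tube networks imaged and analysed; vehicle-normalized readouts fit to four-parameter logistic, POD set at one SD of vehicle means.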

[2] = test system: iCell endothelial cells (human iPSC-derived ECs); test: High-content imaging cytotoxicity in iCell endothelial cells, 24 h; type: cell-based; details: Homo sapiens, Endothelial cell; for viability at 0.1 µM / activity at 0.1 µM: 0.10 µM
Outline: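 Readouts were vehicle-normalised and fitted to a four-parameter logistic model. POD was set at one SD beyond 0.5% DMSO control means, and 100 µM was assigned when no response was seen. Cells were monolayers of iCell endothelial cells imaged after 24 h compound exposure using nuclear, mitochondrial and calcein dyes.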

[3] = HUVECs tube formation, 0.00 µM = 100.00, read-out: huvec.mtl.18hr
[4] = HUVECs tube formation, 0.00 µM = 100.00, read-out: huvec.tlps.18hr
[5] = HUVECs tube formation, 0.00 µM = 100.00, read-out: huvec.tta.18hr
[6] = HUVECs tube formation, 0.00 µM = 100.00, read-out: huvec.ttl.18hr
[7] = iPSC-EC, 0.00 µM = 100.00, read-out: endo.cyto.24hr
[8] = iPSC-EC, 0.00 µM = 100.00, read-out: endo.mito.24hr
[9] = iPSC-EC, 0.00 µM = 100.00, read-out: endo.mitoint.24hr
[10] = iPSC-EC, 0.00 µM = 100.00, read-out: endo.nma.24hr
[11] = iPSC-EC, 0.00 µM = 100.00, read-out: endo.tc.24hrs

Clc1ccc(-c2cc(Cl)c(Cl)c(Cl)c2)cc1Cl [PCB126]
minimal effective concentration ([1]; HUVECs tube formation, MAX 100.00, read-out: huvec.mtl.18hr POD): 100 µM
minimal effective concentration ([1]; HUVECs tube formation, MAX 100.00, read-out: huvec.tlps.18hr POD): 100 µM
minimal effective concentration ([1]; HUVECs tube formation, MAX 100.00, read-out: huvec.tta.18hr POD): 100 µM
minimal effective concentration ([1]; HUVECs tube formation, MAX 100.00, read-out: huvec.ttl.18hr POD): 100 µM
activity at 0.01 µM [1, 3]: 93.6%
activity at 0.01 µM [1, 4]: 51.1%
activity at 0.01 µM [1, 5]: 51.1%
activity at 0.01 µM [1, 6]: 53.8%
activity at 0.1 µM [1, 3]: 98.7%
activity at 0.1 µM [1, 4]: 67.7%
activity at 0.1 µM [1, 5]: 80.9%
activity at 0.1 µM [1, 6]: 84.3%
activity at 1 µM [1, 3]: 87.8%
activity at 1 µM [1, 4]: 61.4%
activity at 1 µM [1, 5]: 77.3%
activity at 1 µM [1, 6]: 83.6%
activity at 10 µM [1, 3]: 89.6%
activity at 10 µM [1, 4]: 52.3%
activity at 10 µM [1, 5]: 94.3%
activity at 10 µM [1, 6]: 100%
activity at 100 µM [1, 3]: 83.2%
activity at 100 µM [1, 4]: 59.4%
activity at 100 µM [1, 5]: 92.7%
activity at 100 µM [1, 6]: 88.9%
viability at 0.01 µM [2, 7]: 100%
activity at 0.01 µM [2, 8]: 99.1%
activity at 0.01 µM [2, 9]: 79.8%
activity at 0.01 µM [2, 10]: 97.4%
viability at 0.01 µM [2, 11]: 100%
viability at 0.1 µM [2, 7]: 95%
activity at 0.1 µM [2, 8]: 95.2%
activity at 0.1 µM [2, 9]: 106%
activity at 0.1 µM [2, 10]: 97.8%
viability at 0.1 µM [2, 11]: 95%
viability at 1 µM [2, 7]: 93.4%
activity at 1 µM [2, 8]: 93.4%
activity at 1 µM [2, 9]: 100%
activity at 1 µM [2, 10]: 101%
viability at 1 µM [2, 11]: 93.4%
viability at 10 µM [2, 7]: 87.7%
activity at 10 µM [2, 8]: 87.6%
activity at 10 µM [2, 9]: 110%
activity at 10 µM [2, 10]: 103%
viability at 10 µM [2, 11]: 87.7%
viability at 100 µM [2, 7]: 75.3%
activity at 100 µM [2, 8]: 74.9%
activity at 100 µM [2, 9]: 151%
activity at 100 µM [2, 10]: 98.8%
viability at 100 µM [2, 11]: 76.9%
minimal effective concentration ([2]; iPSC-EC, 100.00 = highest concentration tested, read-out: endo.cyto.24hr POD): 0.33 µM
minimal effective concentration ([2]; iPSC-EC, 100.00 = highest concentration tested, read-out: endo.mito.24hr POD): 0.33 µM
minimal effective concentration ([2]; iPSC-EC, 100.00 = highest concentration tested, read-out: endo.mitoint.24hr POD): 10.2 µM
minimal effective concentration ([2]; iPSC-EC, 100.00 = highest concentration tested, read-out: endo.nma.24hr POD): 100 µM
minimal effective concentration ([2]; iPSC-EC, 100.00 = highest concentration tested, read-out: endo.tc.24hrs POD): 0.34 µM

COc1ccc(-c2cccc(Cl)c2)cc1Cl [4-OMe-PCB 11, 4-methoxy-3,3′-dichlorobiphenyl]
minimal effective concentration ([1]; tube formation mtl, read-out: POD huvec.mtl.18hr): 9.33 µM
minimal effective concentration ([1]; tube formation tlps, read-out: POD huvec.tlps.18hr): 25.8 µM
minimal effective concentration ([1]; tube formation tta, read-out: POD huvec.tta.18hr): 100 µM
minimal effective concentration ([1]; tube formation ttl, read-out: POD huvec.ttl.18hr): 1.22 µM
minimal effective concentration ([2]; endothelial cells (endo), cyto, 24 hr, read-out: POD endo.cyto.24hr): 100 µM
minimal effective concentration ([2]; endothelial cells (endo), mito, 24 hr, read-out: POD endo.mito.24hr): 100 µM
minimal effective concentration ([2]; endothelial cells (endo), mitoint, 24 hr, read-out: POD endo.mitoint.24hr): 100 µM
minimal effective concentration ([2]; endothelial cells (endo), nma, 24 hr, read-out: POD endo.nma.24hr): 100 µM
minimal effective concentration ([2]; endothelial cells (endo), tc, 24 hr, read-out: POD endo.tc.24hr): 100 µM
